Measured values from PubChem BioAssay (NCI).
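Method: 48-hour compound exposure of cells in 96-well plates, five concentrations, linear interpolation of endpoints. The concentration for 50% growth inhibition is given as GI50. The concentration for full growth arrest is given as TGI.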

Key:
Test in all cases: inhibition of tumour cell growth, NCI panel, 48 h
[1] = tested on: HCT-15 colon
[2] = tested on: SNB-19 CNS
[3] = tested on: OVCAR-8 ovarian
[4] = tested on: HOP-92 NSCLC
[5] = tested on: SF-539 CNS
[6] = tested on: NCI-H460 lung
[7] = tested on: MCF7 breast
[8] = tested on: HL-60(TB) leukemia
[9] = tested on: SN12C renal
[10] = tested on: SF-268 CNS
[11] = tested on: A498 renal
[12] = tested on: HT29 colon
[13] = tested on: RPMI-8226 leukemia
[14] = tested on: TK-10 renal
[15] = tested on: NCI-H226 lung
[16] = tested on: SK-MEL-5 melanoma
[17] = tested on: 786-0 renal
[18] = tested on: NCI/ADR-RES ovarian
[19] = tested on: RXF 393 renal
[20] = tested on: SR leukemia
[21] = tested on: NCI-H23 lung
[22] = tested on: MALME-3M melanoma
[23] = tested on: CCRF-CEM leukemia
[24] = tested on: LOX IMVI melanoma
[25] = tested on: OVCAR-3 ovarian
[26] = tested on: SK-MEL-28 melanoma
[27] = tested on: SNB-75 CNS
[28] = tested on: HS 578T breast
[29] = tested on: T-47D breast
[30] = tested on: M14 melanoma
[31] = tested on: UACC-257 melanoma
[32] = tested on: K-562 leukemia
[33] = tested on: MDA-MB-435
[34] = tested on: HOP-62 NSCLC
[35] = tested on: OVCAR-4 ovarian
[36] = tested on: UO-31 renal
[37] = tested on: SK-OV-3 ovarian
[38] = tested on: SF-295 CNS
[39] = tested on: MOLT-4 leukemia
[40] = tested on: EKVX NSCLC
[41] = tested on: HCC-2998 colon
[42] = tested on: SW-620 colon
[43] = tested on: SK-MEL-2 melanoma
[44] = tested on: KM12 colon
[45] = tested on: CAKI-1 renal
[46] = tested on: NCI-H522 lung
[47] = tested on: IGROV1 ovarian
[48] = tested on: PC-3 prostate
[49] = tested on: MDA-MB-231 breast
[50] = tested on: COLO 205 colon
[51] = tested on: DU-145 prostate
[52] = tested on: HCT-116 colon
[53] = tested on: OVCAR-5 ovarian
[54] = tested on: U251 CNS
[55] = tested on: BT-549 breast
[56] = tested on: ACHN renal
[57] = tested on: A549 NSCLC
[58] = tested on: UACC-62 melanoma

In the case of `CCOc1nc(-c2ccccc2)cc2c(O)c(C(=O)N/N=C/c3ccc(O)cc3O)[nH]c(=O)c12`, the GI50 [1] is reported as 1500 nM, the TGI [1] is reported as over 100000 nM and the GI50 [2] is reported as 1420 nM. For the same molecule, the TGI [2] was over 46800 nM, the GI50 [3] was 965 nM and the TGI [3] was over 37100 nM. The GI50 [4] was 4420 nM, the TGI [4] was over 100000 nM and the GI50 [5] was 904 nM. The TGI [5] was 6060 nM, the GI50 [6] was 3600 nM and the TGI [6] was 27600 nM. It also gave a GI50 [7] of 2170 nM, a TGI [7] of over 32000 nM and a GI50 [8] of 1440 nM. It also gave a TGI [8] of 13400 nM, a GI50 [9] of 2430 nM and a TGI [9] of over 39000 nM. The GI50 [10] was 766 nM, the TGI [10] was 16400 nM and the GI50 [11] was 3640 nM. For the same molecule, the TGI [11] was 28500 nM, the GI50 [12] was 5410 nM and the TGI [12] was over 100000 nM. The GI50 [13] was 5620 nM, the TGI [13] was 43000 nM and the GI50 [14] was 6470 nM. For the same molecule, the TGI [14] was over 100000 nM, the GI50 [15] was 1490 nM and the TGI [15] was 8150 nM. It also gave a GI50 [16] of 1480 nM, a TGI [16] of over 57600 nM and a GI50 [17] of 2310 nM. It also gave a TGI [17] of 8340 nM, a GI50 [18] of 1770 nM and a TGI [18] of over 31300 nM. The GI50 [19] was 1530 nM, the TGI [19] was 11900 nM and the TGI [20] was over 27500 nM. It also gave a GI50 [21] of 4660 nM, a TGI [21] of over 82800 nM and a GI50 [22] of 2860 nM. For the same molecule, the TGI [22] was over 40500 nM, the GI50 [23] was 357 nM and the TGI [23] was over 23200 nM. The GI50 [24] was 686 nM, the TGI [24] was 9110 nM and the GI50 [25] was 364 nM. For the same molecule, the TGI [25] was 10600 nM, the GI50 [26] was 2320 nM and the TGI [26] was over 100000 nM. The GI50 [27] was 3160 nM, the TGI [27] was over 42000 nM and the GI50 [28] was 14000 nM. For the same molecule, the TGI [28] was over 100000 nM, the GI50 [29] was 1640 nM and the TGI [29] was 50100 nM. The GI50 [30] was 1450 nM, the TGI [30] was 7160 nM and the GI50 [31] was 2930 nM. For the same molecule, the TGI [31] was 17300 nM, the GI50 [32] was 1620 nM and the TGI [32] was over 100000 nM. For the same molecule, the GI50 [33] was 4050 nM, the TGI [33] was over 100000 nM and the GI50 [34] was 1650 nM. It also gave a TGI [34] of over 52100 nM, a GI50 [35] of 407 nM and a TGI [35] of over 40800 nM. For the same molecule, the GI50 [36] was 1520 nM, the TGI [36] was 16000 nM and the GI50 [37] was 1260 nM. It also gave a TGI [37] of over 24700 nM, a GI50 [38] of 4880 nM and a TGI [38] of over 100000 nM. For the same molecule, the GI50 [39] was 220 nM, the TGI [39] was over 94400 nM and the GI50 [40] was 2500 nM. The TGI [40] was over 100000 nM, the GI50 [41] was 1950 nM and the TGI [41] was over 82300 nM. For the same molecule, the GI50 [42] was 1880 nM, the TGI [42] was over 100000 nM and the GI50 [43] was 5100 nM. It also gave a TGI [43] of 88800 nM, a GI50 [44] of 5730 nM and a TGI [44] of over 100000 nM. It also gave a GI50 [45] of 1910 nM, a TGI [45] of over 29500 nM and a GI50 [46] of 1290 nM. The TGI [46] was 23500 nM, the GI50 [47] was 4080 nM and the TGI [47] was 59500 nM. It also gave a GI50 [48] of 5550 nM, a TGI [48] of over 100000 nM and a GI50 [49] of 4120 nM. For the same molecule, the TGI [49] was over 93000 nM, the GI50 [50] was 751 nM and the TGI [50] was 12600 nM. The GI50 [51] was 2610 nM, the TGI [51] was 25500 nM and the GI50 [52] was 660 nM. For the same molecule, the TGI [52] was 17500 nM, the GI50 [53] was 7060 nM and the TGI [53] was over 100000 nM. For the same molecule, the GI50 [54] was 789 nM, the TGI [54] was over 100000 nM and the GI50 [55] was 1650 nM. It also gave a TGI [55] of over 26300 nM, a GI50 [56] of 1790 nM and a TGI [56] of over 35500 nM. The GI50 [57] was 6500 nM, the TGI [57] was over 100000 nM and the GI50 [58] was 1170 nM.
In the case of `Fc1cnc(NC2CC2)nc1-c1cnc2ccc(N3CCOCC3)cn12`, the GI50 [1] is reported as 266 nM, the TGI [1] is reported as 14500 nM and the GI50 [2] is reported as 290 nM. It also gave a TGI [2] of 17700 nM, a GI50 [3] of 284 nM and a TGI [3] of over 73900 nM. It also gave a GI50 [4] of 116 nM, a TGI [4] of 461 nM and a GI50 [5] of 164 nM. The TGI [5] was 538 nM, the GI50 [6] was 291 nM and the TGI [6] was 10200 nM. It also gave a GI50 [7] of 272 nM, a TGI [7] of 6910 nM and a GI50 [8] of 304 nM. For the same molecule, the TGI [8] was 1010 nM, the GI50 [9] was 242 nM and the TGI [9] was 5570 nM. For the same molecule, the GI50 [10] was 296 nM, the TGI [10] was 6850 nM and the GI50 [11] was 168 nM. It also gave a TGI [11] of 430 nM, a GI50 [12] of 251 nM and a TGI [12] of over 58300 nM. The GI50 [13] was 292 nM, the TGI [13] was 1710 nM and the GI50 [14] was 357 nM. For the same molecule, the TGI [14] was 54200 nM, the GI50 [15] was 201 nM and the TGI [15] was 1390 nM. The GI50 [16] was 231 nM, the TGI [16] was 706 nM and the GI50 [17] was 322 nM. The TGI [17] was 22800 nM, the GI50 [18] was 276 nM and the TGI [18] was 4700 nM. The GI50 [19] was 93.2 nM, the TGI [19] was 303 nM and the GI50 [20] was 128 nM. The GI50 [21] was 242 nM, the TGI [21] was 957 nM and the GI50 [22] was 340 nM. The TGI [22] was 1060 nM, the GI50 [23] was 325 nM and the TGI [23] was over 100000 nM. For the same molecule, the GI50 [24] was 90 nM, the TGI [24] was 12500 nM and the GI50 [25] was 258 nM. It also gave a TGI [25] of over 32600 nM, a GI50 [26] of 252 nM and a TGI [26] of 1270 nM. The GI50 [27] was 158 nM, the TGI [27] was 475 nM and the GI50 [28] was 265 nM. The TGI [28] was 2460 nM, the GI50 [29] was 299 nM and the TGI [29] was 18600 nM. It also gave a GI50 [30] of 279 nM, a TGI [30] of 1010 nM and a GI50 [31] of 380 nM. For the same molecule, the TGI [31] was 11200 nM, the GI50 [32] was 441 nM and the TGI [32] was over 100000 nM. It also gave a GI50 [33] of 272 nM, a TGI [33] of 992 nM and a GI50 [34] of 306 nM. It also gave a TGI [34] of over 44800 nM, a GI50 [35] of 306 nM and a TGI [35] of 3060 nM. For the same molecule, the GI50 [36] was 282 nM, the TGI [36] was 11100 nM and the GI50 [37] was 781 nM. The TGI [37] was 81900 nM, the GI50 [38] was 299 nM and the TGI [38] was 12100 nM. For the same molecule, the GI50 [39] was 346 nM, the GI50 [40] was 297 nM and the TGI [40] was 3460 nM. For the same molecule, the GI50 [41] was 305 nM, the TGI [41] was 2620 nM and the GI50 [42] was 292 nM. It also gave a TGI [42] of 12400 nM, a GI50 [43] of 218 nM and a TGI [43] of 641 nM. The GI50 [44] was 237 nM, the TGI [44] was 3970 nM and the GI50 [45] was 122 nM. The TGI [45] was 12500 nM, the GI50 [46] was 374 nM and the TGI [46] was 6110 nM. For the same molecule, the GI50 [47] was 268 nM, the TGI [47] was 17500 nM and the GI50 [48] was 276 nM. For the same molecule, the TGI [48] was 8600 nM, the GI50 [49] was 203 nM and the TGI [49] was 1680 nM. The GI50 [50] was 144 nM, the TGI [50] was 428 nM and the GI50 [51] was 323 nM. It also gave a TGI [51] of over 60900 nM, a GI50 [52] of 160 nM and a TGI [52] of over 56300 nM. It also gave a GI50 [53] of 188 nM, a TGI [53] of 3130 nM and a GI50 [54] of 271 nM. The TGI [54] was over 42400 nM, the GI50 [55] was 230 nM and the TGI [55] was 3350 nM. The GI50 [56] was 160 nM, the TGI [56] was 10600 nM and the GI50 [57] was 292 nM. The TGI [57] was over 64300 nM, the GI50 [58] was 200 nM and the TGI [58] was 699 nM.
